Results taken from publication PMC7251097, “Aspartate/asparagine-β-hydroxylase: a high-throughput mass spectrometric assay for discovery of small molecule inhibitors” (Scientific Reports, 2020).
Several values for one entry are separate records, joined by “and”; a condition that tells them apart may be missing. Equal values may be shown once. Where a name gives a salt, the structure may show the parent alone. Read-outs that look alike come from different tables or passages of the source. Values belong to the molecule of their own block, whether it stands above or below them.

Molecular target: T1, His6-AspH315–758 (human aspartate/asparagine-β-hydroxylase, AspH) (Homo sapiens, UniProt Q12797)
T1 construct: N-Terminally His6-tagged human AspH315–758 (His6-AspH315–758) was produced in E. coli BL21 (DE3) cells; made in house; host or cells: E. coli BL21 (DE3), pET-28a(+) vector
T1 sequence (Q12797 315-758): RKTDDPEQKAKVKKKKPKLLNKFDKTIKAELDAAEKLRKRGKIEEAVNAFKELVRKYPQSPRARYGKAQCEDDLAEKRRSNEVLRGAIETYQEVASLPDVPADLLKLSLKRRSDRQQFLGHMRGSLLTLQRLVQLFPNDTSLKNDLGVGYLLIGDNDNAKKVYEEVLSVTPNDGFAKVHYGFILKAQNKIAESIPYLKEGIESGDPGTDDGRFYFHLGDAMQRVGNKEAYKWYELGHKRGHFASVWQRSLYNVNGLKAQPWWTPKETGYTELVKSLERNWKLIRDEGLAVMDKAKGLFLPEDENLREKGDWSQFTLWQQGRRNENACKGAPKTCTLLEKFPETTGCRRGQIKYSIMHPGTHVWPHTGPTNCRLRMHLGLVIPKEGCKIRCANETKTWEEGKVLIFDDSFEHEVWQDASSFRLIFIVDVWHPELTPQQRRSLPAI
Experiment: SPE-MS AspH inhibition assay (LOPAC screen at fixed 20 μM and IC50 dose-response), hydroxylation of cyclic peptide hFX-CP101–119
Type: biochemical
Settings: for IC50: read-out: IC50; for Plate 5 (% inhibition) / Plate 5 (% conversion): plate 5 (Pfitzer), test compounds at fixed 20 μM; for Plate 5 (% conversion): mean conversion DMSO 32.88

[1] = LOPAC compound at fixed 20 uM, plate 1, normalised to DMSO and 2,4-PDCA controls
[2] = LOPAC compound at fixed 20 uM, substrate conversion, plate 1
[3] = LOPAC compound at 20uM, plate 3, conversion of substrate peptide
[4] = LOPAC Plate 4, compound at 20 uM, substrate conversion
[5] = LOPAC Plate 4, compound at 20 uM, read-out: % inhibition
[6] = 50 nM His6-AspH315–758, 1.0 μM hFX-CP101–119, 3 μM 2OG, 2 μM Fe(II), 50 mM HEPES pH 7.5, 20 °C, mean ± SD, n = 2 (2,4-PDCA n = 10)
[7] = LOPAC compound at 20uM, plate 2, conversion of substrate peptide
[8] = LOPAC compound at 20uM, plate 2, normalised to DMSO and 2,4-PDCA controls
[9] = LOPAC Plate 4, compound at 20 uM
[10] = LOPAC compound at 20uM, plate 2, normalised to DMSO and 2,4-PDCA controls, read-out: Plate 2 (% inhibition)

Plate 1 (% inhibition) [1]: -3.39% | Plate 1 (% conversion) [2]: 37.01%
SMILES: Nc1nc2c(ncn2COCCO)c(=O)[nH]1 [Acyclovir]

SMILES: Br.CN1[C@@H]2CC(OC(=O)[C@H](CO)c3ccccc3)C[C@H]1[C@@H]1O[C@@H]12 (single isomer, unassigned; (-)) [(-)-Scopolamine hydrobromide]
% inhibition (20 µM): -9.71%

inhibition at 20 µM (read-out: Plate 2 (% inhibition)): 2.25%
SMILES: OC[C@H]1NC[C@H](O)[C@@H](O)[C@@H]1O [1-Deoxynojirimycin hydrochloride]

Plate 1 (% inhibition) [1]: -6.98% | Plate 1 (% conversion) [2]: 38.22%
SMILES: C=CCn1c(=O)c2c(nc(-c3ccc(S(=O)(=O)O)cc3)n2C)n(C)c1=O

SMILES: NCCCCN=C(N)N [Agmatine sulfate]
Plate 1 (% conversion): 36.66% | Plate 1 (% inhibition) [1]: -2.35%

Plate 3 (% conversion) [3]: 40.82%
SMILES: CCCCCCC(=O)OC1CC(C)(C)NC(C)(C)C1.Cl [TMPH hydrochloride]

% conversion [4]: 39.58% | inhibition at 20 µM [5]: -9.1%
SMILES: CCN(CC)CCCC(C)Nc1c2ccc(Cl)cc2nc2ccc(OC)cc12 (stereo not shown) [Quinacrine dihydrochloride]

SMILES: CC1(C(=O)O)C2CCC(O2)C1(C)C(=O)O (stereo not shown) [Cantharidic Acid]
Plate 1 (% conversion): 25.92% | Plate 1 (% inhibition): 29.65%

SMILES: Cl.NC[C@@H]1O[C@H](C23CC4CC(CC(C4)C2)C3)Cc2c1ccc(O)c2O [A-77636 hydrochloride]
Plate 1 (% conversion): 15.05% | Plate 1 (% inhibition): 62.00%

SMILES: COC(=O)[C@@H](N)CCCN=C(N)N[N+](=O)[O-].Cl
Plate 3 (% conversion) [3]: 34.54%

% conversion [4]: 48.18%
SMILES: CN1CCN(CCCN2c3ccccc3Sc3ccc(Cl)cc32)CC1 [Prochlorperazine dimaleate]

SMILES: N[C@@H](Cn1ccc(=O)c(O)c1)C(=O)O [L-Mimosine, reference compound]
IC50 [6]: 5060 ± 280 nM

IC50 [6]: 3530 ± 710 nM | Inhibition at 20 µM [%] (AspH activity, fixed compound concentration 20 μM, initial LOPAC screen, 0.5%v/v DMSO): 96.1% | % conversion [4]: 3.66%
SMILES: C=CCc1cccc(/C=N/NC(=O)CN2CCN(Cc3ccccc3)CC2)c1O [PAC-1, reference compound]

SMILES: NCCc1c[nH]c2ccc(C(N)=O)cc12.O=C(O)/C=C\C(=O)O [5-Carboxamidotryptamine maleate]
Plate 2 (% conversion): 35.62% | Plate 2 (% inhibition) (20 µM): 0.99%

Plate 3 (% conversion) [3]: 37.52%
SMILES: CCCC(CCC)C(=O)O [Valproic acid sodium]

Plate 1 (% inhibition) [1]: 32.10%
SMILES: CCCCc1oc2ccccc2c1C(=O)c1cc(I)c(OCCN(CC)CC)c(I)c1 [Amiodarone hydrochloride]

SMILES: CC(=O)OCC1=C(C(=O)[O-])N2C(=O)[C@@H](NC(=O)CCC[C@@H](N)C(=O)[O-])[C@H]2SC1.[Zn+2] [cephalosporin C zinc salt, reference compound]
Inhibition at 20 µM [%]: 98.1% | Plate 1 (% conversion): 2.94% | IC50 (pH 7.5): ~70 nM and 70 nM

Plate 1 (% inhibition) [1]: 9.71% | Plate 1 (% conversion) [2]: 32.61%
SMILES: CC(=O)Nc1nnc(S(N)(=O)=O)s1 [Acetazolamide]

% conversion [4]: 23.26%
SMILES: CC1=C(/C=C/C(C)=C/C=C/C(C)=C\C(=O)O)C(C)(C)CCC1 [13-cis-retinoic acid]

SMILES: Br.CCCN1CCc2cc(O)cc3c2[C@H]1Cc1ccc(O)c(O)c1-3
Plate 2 (% conversion) [7]: 6.67% | Plate 2 (% inhibition) [8]: 87.47%

SMILES: Clc1ccc(C(c2ccc(Cl)cc2)n2cc[n+](CC(OCc3ccc(Cl)cc3Cl)c3ccc(Cl)cc3Cl)c2)cc1 (stereo not shown) [Calmidazolium chloride]
Plate 1 (% conversion): 58.50% | Plate 1 (% inhibition) [1]: -67.38%

% conversion [4]: 37.22% | inhibition at 20 µM [5]: -2.2%
SMILES: CCCCNC(=O)NS(=O)(=O)c1ccc(C)cc1 [Tolbutamide]

Plate 1 (% inhibition) [1]: 11.04% | Plate 1 (% conversion) [2]: 32.17%
SMILES: Nc1ccn([C@@H]2O[C@H](CO)[C@@H](O)C2(F)F)c(=O)n1 [Gemcitabine hydrochloride]

% inhibition [9]: -4.78% | % conversion [4]: 38.10%
SMILES: Cc1ccc(S(=O)(=O)N[C@@H](Cc2ccccc2)C(=O)CCl)cc1

% conversion [4]: 29.06%
SMILES: CC(=O)NNC(=O)N1Cc2ccccc2Oc2ccc(Cl)cc21 [SC 19220]

% conversion [4]: 38.97% | inhibition at 20 µM [5]: -7.33%
SMILES: CNCC[C@@H](Oc1ccccc1C)c1ccccc1 [Tomoxetine]

Plate 2 (% conversion) [7]: 42.60% | inhibition at 20 µM [10]: -19.9%
SMILES: OCCN(CCO)c1nc(N2CCCCC2)c2nc(N(CCO)CCO)nc(N3CCCCC3)c2n1 [Dipyridamole]

Plate 3 (% conversion) [3]: 40.11%
SMILES: Oc1cccc2c(O)nccc12 [1,5-Isoquinolinediol]

% conversion [4]: 40.04% | inhibition at 20 µM [5]: -10.5%
SMILES: CC[C@]1(O)C[C@H]2CN(CCc3c([nH]c4ccccc34)[C@@](C(=O)OC)(c3cc4c(cc3OC)N(C=O)[C@H]3[C@@](O)(C(=O)OC)[C@H](OC(C)=O)[C@]5(CC)C=CCN6CC[C@]43[C@@H]65)C2)C1 [Vincristine sulfate]

Plate 2 (% conversion) [7]: 35.43% | Plate 2 (% inhibition) [8]: 1.56%
SMILES: OC[C@H]1NC[C@@H](O)[C@@H]1O [1,4-Dideoxy-1,4-imino-D-arabinitol]

Plate 3 (% conversion) [3]: 48.99%
SMILES: OCCN1CCN(CCCN2c3ccccc3Sc3ccc(Cl)cc32)CC1 [Perphenazine]

% inhibition [9]: 94.15% | % conversion [4]: 4.34%
SMILES: CCCCCCCC/C=C\CCCCCCCC(=O)NCCc1ccc(O)c(O)c1 [N-Oleoyldopamine]

Plate 1 (% inhibition) [1]: -9.33% | Plate 1 (% conversion) [2]: 39.00%
SMILES: C=CCc1ccccc1OCC(O)CNC(C)C (stereo not shown) [Alprenolol hydrochloride]

Plate 2 (% conversion) [7]: 39.49% | inhibition at 20 µM [10]: -10.6%
SMILES: CNS(=O)(=O)CCc1ccc2[nH]cc(C3CCN(C)CC3)c2c1 [Naratriptan hydrochloride]

% inhibition [9]: -22.55% | % conversion [4]: 44.17%
SMILES: N=C(N)SCCc1ccc(OCc2ccc([N+](=O)[O-])cc2)cc1 [KB-R7493]

SMILES: c1ccc(-c2ccccn2)nc1 [2,2-Bipyridyl]
Plate 2 (% conversion): 27.94% | Plate 2 (% inhibition) (20 µM): 23.93%

Plate 3 (% conversion) [3]: 30.37%
SMILES: Nc1nc2c(ncn2CCOCP(=O)(O)O)c(=O)[nH]1 [PMEG hydrate]

Plate 2 (% conversion) [7]: 29.96% | inhibition at 20 µM [10]: 17.9%
SMILES: CC(C)(Sc1ccc(CCN(CCCCC2CCCCC2)C(=O)NC2CCCCC2)cc1)C(=O)O [GW7647]

Plate 2 (% conversion) [7]: 41.49% | inhibition at 20 µM [10]: -16.5%
SMILES: COc1cc(C(=O)OCCCN2CCCN(CCCOC(=O)c3cc(OC)c(OC)c(OC)c3)CC2)cc(OC)c1OC [Dilazep hydrochloride]

Plate 1 (% inhibition) [1]: -5.67% | Plate 1 (% conversion) [2]: 37.77% | Plate 5 (% inhibition): 46.58% | Plate 5 (% conversion): 20.46%
SMILES: Cc1cc(Nc2ncc3cc(-c4c(Cl)cccc4Cl)c(=O)n(C)c3n2)ccc1F [PD-180970]

% conversion [4]: 32.10%
SMILES: CCN1CCC[C@H]1CNC(=O)c1cc(S(N)(=O)=O)ccc1OC [(-)-Sulpiride]

SMILES: CN1CC[C@]2(CCN3CCc4c(oc5ccccc45)[C@@H]3C2)N(C)C1=O.Cl [MK-912]
Plate 3 (% conversion) [3]: 38.39%

inhibition at 20 µM (AspH activity, fixed compound concentration 20 μM, initial LOPAC screen, 0.5%v/v DMSO, read-out: Inhibition at 20 µM [%]): 98.5% | Plate 1 (% inhibition) [1]: 98.53% | Plate 1 (% conversion) [2]: 2.78%
SMILES: O=C(/C=C/c1ccc(O)c(O)c1)OCCc1ccccc1 [Caffeic acid phenethyl ester, reference compound]

Plate 1 (% inhibition) [1]: -22.34% | Plate 1 (% conversion) [2]: 43.38%
SMILES: CN(C)CCCN1c2ccccc2CCc2ccc(Cl)cc21 [Clomipramine hydrochloride]

Plate 1 (% inhibition) [1]: -4.44% | Plate 1 (% conversion) [2]: 37.36%
SMILES: C[N+](C)(C)CC(=O)O [Betaine hydrochloride]

SMILES: Cc1ncc(CNC(=O)N(CCCl)N=O)c(N)n1 [Nimustine hydrochloride]
Plate 3 (% conversion): 38.40%

% conversion [4]: 24.92%
SMILES: CCCNC(C)C(=O)Nc1ccccc1C (stereo not shown) [Prilocaine hydrochloride]

Plate 2 (% conversion) [7]: 34.23% | inhibition at 20 µM [10]: 5.16% | Plate 3 (% conversion) [3]: 30.85%
SMILES: Cc1ccccc1N1C(=O)c2cc(S(N)(=O)=O)c(Cl)cc2NC1C (stereo not shown) [Metolazone]

% conversion [4]: 31.34%
SMILES: C#CCN(C)Cc1ccccc1 [Pargyline hydrochloride]

% inhibition [9]: 12.13% | % conversion [4]: 32.33%
SMILES: N=C(N)NC(=N)Nc1ccccc1 [1-Phenylbiguanide]

Plate 5 (% inhibition): -13.08% | Plate 5 (% conversion): 40.77%
SMILES: Cc1ccc(-c2cc(C(F)(F)F)nn2-c2ccc(S(N)(=O)=O)cc2)cc1 [Celecoxib]

Plate 1 (% inhibition) [1]: -12.26% | Plate 1 (% conversion) [2]: 39.99%
SMILES: OCCN1CCN(CCCN2c3ccccc3C=Cc3ccccc32)CC1 [Opipramol dihydrochloride]

Plate 1 (% inhibition) [1]: -0.97% | Plate 1 (% conversion) [2]: 36.20%
SMILES: Nc1ccc(CCNc2ncnc3c2ncn3[C@@H]2O[C@H](CO)[C@@H](O)[C@H]2O)cc1 [N6-2-(4-Aminophenyl)ethyladenosine]
